{
  "source": "ChEMBL document CHEMBL5390242",
  "about": "“Design, Synthesis, and Antitumor Efficacy of Substituted 2-Amino[1,2,4]triazolopyrimidines and Related Heterocycles as Dual Inhibitors for Microtubule Polymerization and Janus Kinase 2” (J Med Chem, 2023)",
  "key": {"A549 [1]": {"system": "A549", "experiment": "Antiproliferative activity against human A549 cells assessed as cell growth inhibition incubated for 48 hrs by MTT assay", "format": "functional, cell-based", "conditions": "A549, 48 h"}, "[2]": {"target": "Tyrosine-protein kinase JAK1 (Homo sapiens, UniProt P23458)", "sequence (P23458 whole entry)": "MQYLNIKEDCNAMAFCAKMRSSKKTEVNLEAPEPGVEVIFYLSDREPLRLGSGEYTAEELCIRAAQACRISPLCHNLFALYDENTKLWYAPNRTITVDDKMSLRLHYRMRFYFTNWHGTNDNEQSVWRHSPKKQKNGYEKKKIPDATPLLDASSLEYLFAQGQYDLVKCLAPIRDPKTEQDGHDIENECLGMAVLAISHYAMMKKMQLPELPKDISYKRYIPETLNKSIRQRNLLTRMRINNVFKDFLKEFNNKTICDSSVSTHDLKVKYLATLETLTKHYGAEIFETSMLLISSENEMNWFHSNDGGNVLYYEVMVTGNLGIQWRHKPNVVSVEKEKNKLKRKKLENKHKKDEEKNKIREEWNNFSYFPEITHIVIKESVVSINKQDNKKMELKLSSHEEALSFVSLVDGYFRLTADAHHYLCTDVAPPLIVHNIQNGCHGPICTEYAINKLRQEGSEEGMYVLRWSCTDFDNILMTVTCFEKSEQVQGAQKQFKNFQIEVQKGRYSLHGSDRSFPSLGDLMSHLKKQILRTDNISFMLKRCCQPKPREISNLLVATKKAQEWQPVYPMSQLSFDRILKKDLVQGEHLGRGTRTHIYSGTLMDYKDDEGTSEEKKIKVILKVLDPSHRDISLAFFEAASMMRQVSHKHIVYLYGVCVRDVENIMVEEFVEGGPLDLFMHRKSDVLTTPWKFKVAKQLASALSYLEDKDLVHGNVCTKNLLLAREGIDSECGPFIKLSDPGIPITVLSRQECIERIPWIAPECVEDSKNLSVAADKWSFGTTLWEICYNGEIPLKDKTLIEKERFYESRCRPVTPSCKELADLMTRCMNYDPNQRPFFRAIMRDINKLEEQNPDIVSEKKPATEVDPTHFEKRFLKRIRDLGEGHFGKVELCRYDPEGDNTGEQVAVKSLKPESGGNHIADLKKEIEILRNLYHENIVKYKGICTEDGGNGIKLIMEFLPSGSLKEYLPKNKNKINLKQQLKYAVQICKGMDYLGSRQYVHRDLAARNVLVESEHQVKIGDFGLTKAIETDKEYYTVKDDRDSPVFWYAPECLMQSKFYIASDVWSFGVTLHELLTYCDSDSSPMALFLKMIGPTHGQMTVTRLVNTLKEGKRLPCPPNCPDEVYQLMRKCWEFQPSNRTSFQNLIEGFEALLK", "experiment": "Inhibition of JAK1 (unknown origin) using Poly-(Glu,Tyr 4:1) peptide as substrate in presence of ATP by ADP-Glo reagent based assay"}, "[3]": {"target": "Tyrosine-protein kinase JAK3 (Homo sapiens, UniProt P52333)", "sequence (P52333 whole entry)": "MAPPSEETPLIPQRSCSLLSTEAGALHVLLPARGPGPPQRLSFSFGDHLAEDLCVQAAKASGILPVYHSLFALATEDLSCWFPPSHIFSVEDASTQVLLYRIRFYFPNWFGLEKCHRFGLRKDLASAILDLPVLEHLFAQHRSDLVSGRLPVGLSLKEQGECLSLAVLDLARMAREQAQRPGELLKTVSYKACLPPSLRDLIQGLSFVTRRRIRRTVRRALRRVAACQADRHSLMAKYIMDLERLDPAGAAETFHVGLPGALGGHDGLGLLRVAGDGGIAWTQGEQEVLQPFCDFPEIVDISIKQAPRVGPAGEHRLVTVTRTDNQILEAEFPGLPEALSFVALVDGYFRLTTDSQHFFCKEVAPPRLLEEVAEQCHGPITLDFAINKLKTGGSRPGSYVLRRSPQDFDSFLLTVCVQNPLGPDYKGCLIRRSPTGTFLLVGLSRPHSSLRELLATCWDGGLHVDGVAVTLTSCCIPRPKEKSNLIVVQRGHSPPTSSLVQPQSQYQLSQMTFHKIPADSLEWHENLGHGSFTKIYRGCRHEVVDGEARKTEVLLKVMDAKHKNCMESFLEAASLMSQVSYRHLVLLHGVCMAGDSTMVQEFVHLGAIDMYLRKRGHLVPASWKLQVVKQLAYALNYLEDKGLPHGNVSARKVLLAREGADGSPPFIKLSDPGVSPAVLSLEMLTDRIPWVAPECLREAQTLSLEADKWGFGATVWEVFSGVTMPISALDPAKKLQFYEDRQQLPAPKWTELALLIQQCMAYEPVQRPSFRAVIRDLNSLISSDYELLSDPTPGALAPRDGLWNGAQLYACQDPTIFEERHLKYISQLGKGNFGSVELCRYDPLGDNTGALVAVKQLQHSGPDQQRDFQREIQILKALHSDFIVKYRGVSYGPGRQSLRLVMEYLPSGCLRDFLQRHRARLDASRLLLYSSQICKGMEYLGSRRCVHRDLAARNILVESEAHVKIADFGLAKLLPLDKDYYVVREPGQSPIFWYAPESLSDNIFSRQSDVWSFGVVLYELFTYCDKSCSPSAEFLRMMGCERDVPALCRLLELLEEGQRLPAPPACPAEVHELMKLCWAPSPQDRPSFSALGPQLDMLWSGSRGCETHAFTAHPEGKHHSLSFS", "description": "Inhibition of JAK3 (unknown origin) using Poly-(Glu,Tyr 4:1) peptide as substrate in presence of ATP by ADP-Glo reagent based assay"}, "CWR22R": {"system": "CWR22R", "experiment": "Cytotoxicity against human 22Rv1 cells assessed as cell growth inhibition incubated for 48 hrs by MTT assay", "format": "functional, cell-based", "conditions": "22Rv1, 48 h"}, "A2780/Taxol": {"system": "A2780/Taxol", "experiment": "Antiproliferative activity against human A2780T cells assessed as cell growth inhibition incubated for 48 hrs by MTT assay", "format": "functional, cell-based"}, "[4]": {"experiment": "Resistance index, ratio of IC50 for antiproliferative activity against human HCT-8/VCR cells to IC50 for antiproliferative activity against human HCT-8 cells", "format": "functional"}, "[5]": {"experiment": "Resistance index, ratio of IC50 for antiproliferative activity against human A549/DDP cells to IC50 for antiproliferative activity against human A549 cells", "format": "functional"}, "PC-3": {"system": "PC-3", "experiment": "Antiproliferative activity against human PC-3 cells assessed as cell growth inhibition incubated for 48 hrs by MTT assay", "format": "functional, cell-based", "conditions": "PC-3, 48 h"}, "[6]": {"experiment": "AUC (0 to t) in CD-1 mouse at 1 mg/kg,iv measured upto 24 hrs by HPLC-MS/MS analysis", "format": "ADME, organism-based", "design": "dose 1 mg/kg, time < 24 hrs, route iv", "conditions": "in vivo"}, "[7]": {"experiment": "MRT (0 to infinity) in CD-1 mouse at 1 mg/kg,iv measured upto 24 hrs by HPLC-MS/MS analysis", "format": "ADME, organism-based", "conditions": "in vivo"}, "[8]": {"experiment": "Half life in CD-1 mouse at 1 mg/kg,iv measured upto 24 hrs by HPLC-MS/MS analysis", "format": "ADME, organism-based", "conditions": "in vivo"}, "[9]": {"experiment": "Tmax in CD-1 mouse at 1 mg/kg,iv measured upto 24 hrs by HPLC-MS/MS analysis", "format": "ADME, organism-based", "conditions": "in vivo"}, "[10]": {"experiment": "Cmax in CD-1 mouse at 1 mg/kg,iv measured upto 24 hrs by HPLC-MS/MS analysis", "format": "ADME, organism-based", "design": "dose 1 mg/kg, time < 24 hrs, route iv", "conditions": "in vivo"}, "[11]": {"experiment": "MRT (0 to infinity) in CD-1 mouse at 10 mg/kg,ip measured upto 24 hrs by HPLC-MS/MS analysis", "format": "ADME, organism-based", "conditions": "in vivo"}, "[12]": {"experiment": "Half life in CD-1 mouse at 10 mg/kg,ip measured upto 24 hrs by HPLC-MS/MS analysis", "format": "ADME, organism-based", "conditions": "in vivo"}, "[13]": {"experiment": "Tmax in CD-1 mouse at 10 mg/kg,ip measured upto 24 hrs by HPLC-MS/MS analysis", "format": "ADME, organism-based", "conditions": "in vivo"}, "[14]": {"experiment": "AUC (0 to infinity) in CD-1 mouse assessed as AUC (0 to infinity) of metabolite at 10 mg/kg,ip measured upto 24 hrs by HPLC-MS/MS analysis", "format": "ADME, organism-based", "design": "time < 24 hrs, dose 10 mg/kg, route ip", "conditions": "in vivo"}, "[15]": {"experiment": "MRT (0 to t) in CD-1 mouse assessed as MRT (0 to t) of metabolite at 10 mg/kg,ip measured upto 24 hrs by HPLC-MS/MS analysis", "format": "ADME, organism-based", "conditions": "in vivo"}, "[16]": {"experiment": "Half life in CD-1 mouse assessed as half life of metabolite at 10 mg/kg,ip measured upto 24 hrs by HPLC-MS/MS analysis", "format": "ADME, organism-based", "conditions": "in vivo"}, "[17]": {"experiment": "Tmax in CD-1 mouse assessed as Tmax of metabolite at 10 mg/kg,ip measured upto 24 hrs by HPLC-MS/MS analysis", "format": "ADME, organism-based", "conditions": "in vivo"}, "[18]": {"experiment": "Cmax in CD-1 mouse assessed as Cmax of metabolite at 10 mg/kg,ip measured upto 24 hrs by HPLC-MS/MS analysis", "format": "ADME, organism-based", "design": "time < 24 hrs, dose 10 mg/kg, route ip", "conditions": "in vivo"}, "[19]": {"target": "Tubulin beta (Homo sapiens) (UniProt P68371+Q9H4B7+Q13509+P04350+Q3ZCM7+P07437+Q13885+Q9BVA1+Q9BUF5+A6NNZ2)", "experiment": "Binding affinity to beta-tubulin colchicine binding site in human A549 cells assessed as inhibition of EBI-beta-tubulin adduct band formation at 1 to 25 uM preincubated for 2 hrs followed by EBI addition measured after 1.5 hrs by EBI competition based Western blotting analysis", "format": "cell-based", "conditions": "dose 1-25 µM"}, "A549 [20]": {"system": "A549", "experiment": "Induction of cell cycle arrest in human A549 cells assessed as accumulation of cells at G2/M phase at 10 nM incubated for 24 hrs by PI/RNase staining based flow cytometry analysis", "format": "functional"}, "A549 [21]": {"system": "A549", "experiment": "Induction of apoptosis in human A549 cells assessed as viable cells at 5 nM incubated for 24 hrs by Annexin V-FITC/PI staining based flow cytometry (reference value: 93 %)", "format": "functional", "conditions": "read-out: Activity"}, "A549 [22]": {"system": "A549", "experiment": "Induction of apoptosis in human A549 cells assessed as viable cells at 10 nM incubated for 24 hrs by Annexin V-FITC/PI staining based flow cytometry (reference value: 93 %)", "format": "functional", "conditions": "read-out: Activity"}, "A549 [23]": {"system": "A549", "experiment": "Induction of apoptosis in human A549 cells assessed as early apoptotic cells at 5 nM incubated for 24 hrs by Annexin V-FITC/PI staining based flow cytometry (reference value: 4.61 %)", "format": "functional"}, "A549 [24]": {"system": "A549", "experiment": "Induction of apoptosis in human A549 cells assessed as late apoptotic cells at 5 nM incubated for 24 hrs by Annexin V-FITC/PI staining based flow cytometry (reference value: 1.72 %)", "format": "functional"}, "A549 [25]": {"system": "A549", "experiment": "Induction of apoptosis in human A549 cells assessed as late apoptotic cells at 10 nM incubated for 24 hrs by Annexin V-FITC/PI staining based flow cytometry (reference value: 1.72 %)", "format": "functional"}, "A549 [26]": {"system": "A549", "experiment": "Induction of apoptosis in human A549 cells assessed as late apoptotic cells at 20 nM incubated for 24 hrs by Annexin V-FITC/PI staining based flow cytometry (reference value: 1.72 %)", "format": "functional"}, "A549 [27]": {"system": "A549", "experiment": "Induction of apoptosis in human A549 cells assessed as necrotic cells at 10 nM incubated for 24 hrs by Annexin V-FITC/PI staining based flow cytometry (reference value: 0.67 %)", "format": "functional"}, "A549 [28]": {"system": "A549", "experiment": "Induction of apoptosis in human A549 cells assessed as increase in mitochondrial ROS level at 5 to 20 nM incubated for 16 hrs by MitoSOX red dye based fluorescence microscopy", "format": "functional, cell-based", "conditions": "dose 5-20 nM"}, "A549 [29]": {"system": "A549", "experiment": "Induction of mitochondrial membrane potential loss in human A549 cells by measuring red fluorescence at 10 nM incubated for 16 hrs by JC-1 staining based flow cytometry analysis (reference value: 99.3 %)", "format": "functional"}, "A549 [30]": {"system": "A549", "experiment": "Induction of mitochondrial membrane potential loss in human A549 cells by measuring green fluorescence at 20 nM incubated for 16 hrs by JC-1 staining based flow cytometry analysis (reference value: 0.7 %)", "format": "functional"}, "[31]": {"experiment": "Toxicity in Balb/c mouse xenografted with human A549 cells assessed as effect on liver morphology at 50 mg/kg,ip administration measured after 31 days by Hematoxylin-eosin staining based microscopy", "format": "organism-based", "conditions": "in vivo, 744 h, time 31 day"}, "[32]": {"experiment": "Toxicity in Balb/c mouse xenografted with human A549 cells assessed as effect on heart morphology at 50 mg/kg,ip administration measured after 31 days by Hematoxylin-eosin staining based microscopy", "format": "organism-based", "conditions": "in vivo, 744 h, time 31 day"}, "[33]": {"experiment": "Toxicity in Balb/c mouse xenografted with human A549 cells assessed as effect on kidney morphology at 50 mg/kg,ip administration measured after 31 days by Hematoxylin-eosin staining based microscopy", "format": "organism-based", "conditions": "in vivo, 744 h, time 31 day"}, "NCI/ADR-RES": {"system": "NCI/ADR-RES", "experiment": "cells", "conditions": "Homo sapiens, 48 h", "description": "Antiproliferative activity against human MCF7ADR cells assessed as cell growth inhibition incubated for 48 hrs by MTT assay"}},
  "note": "Activity calls are given as the source filed them. The calls are words filed in the database; no cut-off is given here.",
  "data": [
    {"smiles": "COc1cc(-c2nccc3nc(Nc4cccc5[nH]ccc45)nn23)cc(OC)c1OC", "values": [
      {"measurement": "IC50", "setting": "A549 [1]", "result": 0.008, "unit": "µM"},
      {"measurement": "IC50", "setting": "[2]", "result": "> 20", "unit": "µM"},
      {"measurement": "IC50", "setting": "[3]", "result": 12.2, "unit": "µM"},
      {"measurement": "IC50", "setting": "CWR22R", "result": 0.0124, "unit": "µM"},
      {"measurement": "IC50", "setting": "A2780/Taxol", "result": 0.02, "unit": "µM"},
      {"measurement": "Ratio IC50", "setting": "[4]", "result": 1.4},
      {"measurement": "Ratio IC50", "setting": "[5]", "result": 0.5},
      {"measurement": "IC50", "setting": "PC-3", "result": 0.224, "unit": "µM"},
      {"measurement": "AUC(0-t) at 24 h", "setting": "[6]", "result": 0.363, "unit": "µg·h/mL"},
      {"measurement": "MRT inf", "setting": "[7]", "result": 7.1, "unit": "h"},
      {"measurement": "half-life", "setting": "[8]", "result": 6, "unit": "h"},
      {"measurement": "Tmax", "setting": "[9]", "result": 6, "unit": "min"},
      {"measurement": "Cmax", "setting": "[10]", "result": 0.117, "unit": "µg/mL"},
      {"measurement": "MRT inf", "setting": "[11]", "result": 5.6, "unit": "h"},
      {"measurement": "half-life", "setting": "[12]", "result": 5.5, "unit": "h"},
      {"measurement": "Tmax", "setting": "[13]", "result": 0.5, "unit": "h"},
      {"measurement": "AUC", "setting": "[14]", "result": 2.6043, "unit": "µg·h/mL"},
      {"measurement": "MRT(t)", "setting": "[15]", "result": 3.5, "unit": "h"},
      {"measurement": "t1/2", "setting": "[16]", "result": 5.3, "unit": "h"},
      {"measurement": "Tmax", "setting": "[17]", "result": 1, "unit": "h"},
      {"measurement": "Cmax", "setting": "[18]", "result": 0.7002, "unit": "µg/mL"},
      {"measurement": "Activity", "setting": "[19]", "result": "Active"},
      {"measurement": "Activity", "setting": "A549 [20]", "result": 32.9, "unit": "%"},
      {"measurement": "viability at 0.005 µM", "setting": "A549 [21]", "result": 90.5, "unit": "%"},
      {"measurement": "viability at 0.01 µM", "setting": "A549 [22]", "result": 55.4, "unit": "%"},
      {"measurement": "Activity", "setting": "A549 [23]", "result": 7.51, "unit": "%"},
      {"measurement": "Activity", "setting": "A549 [24]", "result": 1.78, "unit": "%"},
      {"measurement": "Activity", "setting": "A549 [25]", "result": 14.7, "unit": "%"},
      {"measurement": "Activity", "setting": "A549 [26]", "result": 50.8, "unit": "%"},
      {"measurement": "Activity", "setting": "A549 [27]", "result": 2.6, "unit": "%"},
      {"measurement": "Activity", "setting": "A549 [28]", "result": "Active"},
      {"measurement": "Activity", "setting": "A549 [29]", "result": 73.6, "unit": "%"},
      {"measurement": "Activity", "setting": "A549 [30]", "result": 44.1, "unit": "%"},
      {"measurement": "Activity", "setting": "[31]", "result": "Non-Toxic"},
      {"measurement": "Activity", "setting": "[32]", "result": "Non-Toxic"},
      {"measurement": "Activity", "setting": "[33]", "result": "Non-Toxic"},
      {"measurement": "IC50", "setting": "NCI/ADR-RES", "result": 0.064, "unit": "µM"}
    ]}
  ]
}
